Some results are limits rather than exact numbers.

Experiment [1] concerns HCV nonstructural protein NS5A. Description: Quantitative Western blot assay. The note with it: 9-13 replicon cells, 48 hours with compound, second symbol of Replicon/Western. The format is cell-based, Hepatitis C virus (HCV). The procedure: Alternatively, the inhibitory activity of the compounds can be confirmed using a quantitative Western immunoblot assay utilizing antibodies specific for HCV non-structural proteins, such as NS3, NS4A NS5A and NS5B. In one embodiment of this assay, replicon cells are treated with varying concentrations of test compound to determine the concentration of test compound that yields a 50% reduction in the amount of a non-structural protein produced as compared to a control sample (IC50). A single non-structural protein may be quantified or multiple non-structural proteins may be quantified. Antibodies suitable for carrying out such immunoblot assays are available commercially (e.g., from BIODESIGN International, Saco, Me.).
Certain exemplary compounds of the invention were also tested for their ability to inhibit HCV replication using a quantitative Western blot analysis with antibodies specific for the HCV nonstructural protein NS5A. Actively dividing 9-13 replicon cells were seeded into 6-well plates at a density of 1×10^5 cells/well in a volume of 2 ml/well and incubated at 37° C. and 5% CO2 for 24 hours. Various concentrations of test compounds (in a volume of 10 ul) were added to the wells and the cells incubated for another 48 hours. Protein samples were prepared from the cultured cells, resolved on a SDS-PAGE gel and transferred to a nitrocellulose membrane. The membrane was blocked with 5% non-fat milk in PBS for 1 hour at room temperature. Primary antibody (anti NS5A antibody; BIODESIGN International, Saco, Me.) incubation was performed for 1 hour at room temperature, after which the membrane was washed 3 times (for 15 min per time) with PBST (PBS plus 0.1% Tween 20). Horseradish peroxidase conjugated secondary antibody incubation was performed for 1 hour at room temperature and the membrane was washed 3 times (for 15 min per time) with PBST. The membrane was then soaked in substrate solution (Pierce) and exposed to a film or quantified using an imager. In this assay, the amount of test compound that yielded a 50% reduction in the amount of NS5A protein translated as compared to a control sample (IC50) was determined.
On the technique in general: Immunoblotting shows a protein as a band on a membrane.

In experiment [2] the target is HCV replicon. Nature of the experiment: HCV replicon assay (luciferase). Type of experiment: cell-based, Hepatitis C virus (HCV). The note with it: 5-2 Luc replicon cells, 24 hours with compound, luciferase emission; first symbol of Replicon/Western. The text has this: In one embodiment, the inhibitory activity of the compounds can be confirmed in a replicon assay that assesses the ability of a test compound to block or inhibit HCV replication in replicon cells. One example of a suitable replicon assay is the liver cell-line Huh 7-based replicon assay described in Lohmann et al., 1999, Science 285:110-113. A specific example of this replicon assay which utilizes luciferase translation is provided in the Examples Section. In one embodiment of this assay, the amount of test compound that yields a 50% reduction in translation as compared to a control cell (IC50) may be determined.
The inhibitory activity of certain exemplary compounds of the invention was confirmed using an HCV replicon assay. The HCV replicon can include such features as the HCV 5′ untranslated region including the HCV IRES, the HCV 3′ untranslated region, selected HCV genes encoding HCV polypeptides, selectable markers, and a reporter gene such as luciferase, GFP, etc. In the assay, actively dividing 5-2 Luc replicon-comprising cells (obtained from Rolf Bartenschlager; see Lohmann et al., 1999, Science 285:110-113) were seeded at a density of between about 5,000 and 7,500 cells/well onto 96 well plates (about 90 μl of cells per well) and incubated at 37° C. and 5% CO2 for 24 hours. Then, the test compound (in a volume of about 10 μl) was added to the wells at various concentrations and the cells were incubated for an additional 24 hours before luciferase assay. The media was aspirated from each well and Bright-Glo (Promega, Madison, Wis.) luciferase assay reagents were added to each well according to the manufacturer's instructions. Briefly, the Bright-Glo reagent was diluted 1:1 with PBS and 100 μl of diluted reagent was added to each well. After 5 min of incubation at room temperature, luciferin emission was quantified with a luminometer. In this assay, the amount of test compound that yielded a 50% reduction in luciferase emission (IC50) was determined.

For the compound `COC(=O)c1ccc(Cl)c(-c2cc(-c3cccc(NC(=O)C(Cl)Cl)c3)on2)c1Cl` [Compound 135, 2,2-Dichloro-N-[3-[3-(3-carbomethoxy-2,6-dichlorophenyl)-5-isoxazolyl]phenyl] Acetamide], the IC50 in experiment [1] and in experiment [2] was > 10 µM each time. As to `O=C(CI)Nc1cccc(-c2cc(-c3c(Cl)cccc3Cl)no2)c1` [Compound 101, 2-Iodo-N-[3-[3-(2,6-dichlorophenyl)-5-isoxazolyl]phenyl] Acetamide], the IC50 (usually the concentration that gives 50% inhibition) in experiment [1] is > 10 µM; in experiment [2] it was ≤ 10 µM. Turning to `O=C(Nc1cccc(-c2cc(-c3c(Cl)cc(OCCN4CCOCC4)cc3Cl)no2)c1)C(Cl)Cl` [Compound 75, 2,2-Dichloro-N-[3-[3-[2,6-dichloro-4-(N-morpholinoethyleneoxy)phenyl]-5-isoxazolyl]-phenyl] Acetamide], the IC50 in experiment [1] is ≤ 10 µM; in experiment [2], > 10 µM. Take “2,2-Dichloro-N-[3-[3-[2-fluoro-(6-N-morpholinosulfamoyl)phenyl]-5-isoxazolyl]-phenyl] Acetamide [Compound 21]”: the IC50 in experiment [1] and in experiment [2] was ≤ 10 µM in each case. As to `O=C(Nc1cccc(-c2cc(-c3c(Cl)cccc3Cl)on2)c1)C(Cl)Cl` [Compound 5, 2,2-Dichloro-N-[3-[5-(2,6-dichlorophenyl)-3-isoxazolyl]phenyl] Acetamide], the IC50 in experiment [1] and in experiment [2] was ≤ 10 µM each time. Consider `Cc1ccc(F)c(-c2cc(-c3cccc(NC(=O)C(Cl)Cl)c3)on2)c1Cl` [Compound 15, 2,2-Dichloro-N-[3-[3-(2-chloro-6-fluoro-3-methylphenyl)-5-isoxazolyl]phenyl] Acetamide], for which the IC50 in experiment [1] and in experiment [2] was ≤ 10 µM throughout. With `O=C(Nc1cc(-c2cc(-c3c(Cl)cccc3Cl)no2)ccc1F)C(Cl)Cl` [Compound 1, 2,2-Dichloro-N-[3-[3-(2,6-dichlorophenyl)-5-isoxazolyl]-6-fluorophenyl] Acetamide], the IC50 in experiment [1] and in experiment [2] was ≤ 10 µM throughout. For `CSc1cccc(F)c1-c1cc(-c2cccc(NC(=O)C(Cl)Cl)c2)on1` [Compound 11, 2,2-Dichloro-N-[3-[3-(2-fluoro-6-thiomethylphenyl)-5-isoxazolyl]phenyl] Acetamide], the half-maximal inhibitory concentration (IC50) in experiment [1] and in experiment [2] was ≤ 10 µM throughout. On to `O=C(Nc1cccc(-c2cc(-c3c(F)cccc3Cl)no2)c1)C(Cl)Cl` [Compound 27, 2,2-Dichloro-N-[3-[3-(2-chloro-6-fluorophenyl)-5-isoxazolyl]phenyl] Acetamide], for which the half-maximal inhibitory concentration (IC50) in experiment [1] and in experiment [2] was ≤ 10 µM throughout. As to `O=C(Nc1cccc(-c2cc(-c3cccc(Cl)c3Cl)no2)c1)C(Cl)Cl` [Compound 3, 2,2-Dichloro-N-[3-[3-(2,3-dichlorophenyl)-5-isoxazolyl]phenyl] Acetamide], the IC50 is ≤ 10 µM in experiment [1] and > 10 µM in experiment [2].

Take `COc1cccc(C(F)(F)F)c1-c1cc(-c2cccc(NC(=O)C(Cl)Cl)c2)on1` [Compound 77, 2,2-Dichloro-N-[3-[3-(2-methoxy-6-trifluoromethylphenyl)-5-isoxazolyl]phenyl] Acetamide]: in experiment [2], the IC50 is ≤ 10 µM. Still for that read-out and setting: with `CC(C)Oc1ccccc1-c1cc(-c2cccc(NC(=O)C(Cl)Cl)c2)on1` [Compound 119, 2,2-Dichloro-N-[3-[3-(2-isopropyloxyphenyl)-5-isoxazolyl]phenyl] Acetamide] the figure was ≤ 10 µM. On to `Cc1cccc(-c2cc(-c3cccc(NC(=O)C(Cl)Cl)c3)on2)c1C` [Compound 163, 2,2-Dichloro-N-[3-[3-(2,3-dimethylphenyl)-5-isoxazolyl]phenyl] Acetamide], for which the concentration for half-maximal inhibition (IC50) in experiment [1] and in experiment [2] was > 10 µM in each case.

For the compound `Cc1cccc(C(F)(F)F)c1-c1cc(-c2cccc(NC(=O)C(Cl)Cl)c2)on1` [Compound 85, 2,2-Dichloro-N-[3-[3-(2-methyl-6-trifluoromethylphenyl)-5-isoxazolyl]phenyl] Acetamide], the IC50 in experiment [2] is ≤ 10 µM. With `CCOC(=O)C1CCN(c2cccc(Cl)c2-c2cc(-c3cccc(NC(=O)C(Cl)Cl)c3)on2)CC1` [Compound 151, 2,2-Dichloro-N-[3-[3-[2-chloro-6-(4-carboethoxypiperidino)phenyl]-5-isoxazolyl]-phenyl] Acetamide], in experiment [2], the IC50 is > 10 µM. As to `CN1CCN(c2cccc(Cl)c2-c2cc(-c3cccc(NC(=O)C(Cl)Cl)c3)on2)CC1` [Compound 99, 2,2-Dichloro-N-[3-[3-[2-chloro-6-(4-methylpiperazino)phenyl]-5-isoxazolyl]phenyl] Acetamide], the IC50 in experiment [2] was ≤ 10 µM. On to `O=C(Nc1cccc(-c2cc(-c3c(Cl)cccc3N3CCOCC3)no2)c1)C(Cl)Cl` [Compound 7, 2,2-Dichloro-N-[3-[3-[2-chloro-6-(N-morpholino)phenyl]-5-isoxazolyl]phenyl] Acetamide], for which the concentration for half-maximal inhibition (IC50) in experiment [1] and in experiment [2] was ≤ 10 µM each time. As to `O=C(Nc1ccc(F)c(-c2cc(-c3c(Cl)cccc3Cl)no2)c1)C(Cl)Cl` [Compound 13, 2,2-Dichloro-N-[3-[3-(2,6-dichlorophenyl)-5-isoxazolyl]-4-fluorophenyl] Acetamide], the IC50 in experiment [1] and in experiment [2] was ≤ 10 µM in each case. For the compound `COc1cccc(F)c1-c1cc(-c2cccc(NC(=O)C(Cl)Cl)c2)on1` [Compound 43, 2,2-Dichloro-N-[3-[3-(2-fluoro-6-methoxyphenyl)-5-isoxazolyl]phenyl] Acetamide], the 50% inhibitory concentration (IC50) in experiment [2] is ≤ 10 µM.

Turning to `Cc1cccc(C)c1-c1cc(-c2cccc(NC(=O)C(Cl)Cl)c2)on1` [Compound 47, 2,2-Dichloro-N-[3-[3-(2,6-dimethylphenyl)-5-isoxazolyl]phenyl] Acetamide], in experiment [2], the half-inhibitory concentration (IC50) was ≤ 10 µM. `O=C(Nc1cccc(-c2cc(-c3c(F)ccc(F)c3Cl)no2)c1)C(Cl)Cl` [Compound 53, 2,2-Dichloro-N-[3-[3-(2-chloro-3,6-difluorophenyl)-5-isoxazolyl]phenyl] Acetamide]: in experiment [2], the 50% inhibitory concentration (IC50) is ≤ 10 µM. `CC(C)c1ccccc1-c1cc(-c2cccc(NC(=O)C(Cl)Cl)c2)on1` [Compound 63, 2,2-Dichloro-N-[3-[3-(2-isopropylphenyl)-5-isoxazolyl]phenyl] Acetamide]: in experiment [2], the 50% inhibitory concentration (IC50) was ≤ 10 µM. For `O=C(O)c1ccc(Cl)c(-c2cc(-c3cccc(NC(=O)C(Cl)Cl)c3)on2)c1Cl` [Compound 139, 2,2-Dichloro-N-[3-[3-(3-carboxy-2,6-dichlorophenyl)-5-isoxazolyl]phenyl] Acetamide], the IC50 in experiment [2] was > 10 µM.

Turning to “2,2-Dichloro-N-[3-[3-[2-(N-morpholino)-6-trifluoromethylphenyl)-5-isoxazolyl]phenyl] Acetamide [Compound 37]”, the half-maximal inhibitory concentration (IC50) in experiment [1] and in experiment [2] was ≤ 10 µM throughout. `O=C(CCl)Nc1cccc(-c2cc(-c3c(Cl)cccc3Cl)no2)c1` [Compound 67, 2-Chloro-N-[3-[3-(2,6-dichlorophenyl)-5-isoxazolyl]phenyl] Acetamide]: the IC50 in experiment [2] is ≤ 10 µM. Consider `O=C(Nc1cc(-c2cc(-c3c(Cl)cccc3Cl)no2)ccc1N1CCOCC1)C(Cl)Cl` [Compound 169], for which the IC50 in experiment [2] was > 10 µM.

For “2,2-Dichloro-N-[3-[3-[2,6-dimethyl-4-(N-morpholino-2-ethyleneoxy)phenyl]-5-isoxazolyl]phenyl] Acetamide [Compound 23]”, the IC50 in experiment [2] was ≤ 10 µM. On to `O=C(Nc1cccc(-c2cc(-c3ccccc3OC(F)(F)F)no2)c1)C(Cl)Cl` [Compound 113, 2,2-Dichloro-N-[3-[3-(2-trifluoromethoxyphenyl)-5-isoxazolyl]phenyl] Acetamide], for which, in experiment [2], the IC50 is ≤ 10 µM.

For the origin of these results see US6759538B2, “Substituted diphenyl heterocycles useful for treating HCV infection” (priority 2001, dated 2004).
